# Assay results: patent US5817689A, “Indole derivatives having a 2-phenyl-ethanolamino-substituted lower alkyl group at the 2-or 3-position thereof” (priority 1994, dated 1998)
# Key:
# [1] = biological target: T1, human β3 -adrenergic receptor (Homo sapiens, UniProt P13945); assay: Human β3-adrenergic receptor-stimulating activity (cAMP accumulation in CHO/pKREX10-36 cells); assay type: cell-based
# T1 construct: expressed in transfected cells; host or cells: CHO-K1 (ATCC CCL 61), clone CHO/pKREX10-36
# Description: Establishment of the cell line highly expressing human β3 -adrenergic receptor
# Separately, another expression vector for animal cells, pSV2-neo [Southern and Berg, J. Mol. Appl. Genet. […] These DNAs were ligated with DNA Ligation Kit (Takara Shuzo Co., Ltd.) and were introduced into E. coli HB101 in a conventional manner to give the transformants. Plasmid DNAs were prepared from the transformants and digested with a restriction endonuclease PstI. A clone which produced about 3.8 kbp, 2.2 kbp, 1.4 kbp, and 0.9 kbp fragments was selected to give a plasmid named pKCN0.
# The reaction mixture was used for transformation of E. coli HB101 and plasmid DNAs were prepared from the selected transformants. The plasmid DNAs were digested with restriction endonucleases DraI and HindIII, and a clone which produced about 430 bp fragment was selected to give a plasmid named pKCN1 for expression vector.
# 10% Dimethyl sulfoxide was added to the reaction mixture at the PCR reaction.
# After the reaction mixture was digested with restriction endonucleases Sse8387I and StuI, about 1.3 kbp fragment was isolated by electrophoresis. This fragment was ligated with expression vector pKCN1 which was digested with restriction endonucleases Sse8387I and EcoRV, and the resultant was introduced into E. coli HB101 in a conventional manner. Plasmid DNA was prepared from the selected transformant and the nucleotide sequence of the about 1.3 kbp fragment obtained by digestion of the plasmid DNA with restriction endonucleases Sse8387I and XhoI was determined. […] This plasmid for expressing human β3 -adrenergic receptor was named as pKREX10.
# The reaction mixture was filtered with glass filter GF/C (Whatman) presoaked with 0.3% polyethyleneimine and washed by using BIO-DOT apparatus (Bio-Rad Laboratories), and the radioactivity on the filter was counted by γ-ray counter. […] Establishment of the cell line highly expressing human β2 -adrenergic receptor
# (§1) Experiment 1 Human β-adrenergic receptor-stimulating activity:
# (§2) The cells were peeled off by incubation with phosphate-buffered saline containing 0.5 mM EDTA at 37° C. for 10 minutes after the medium was removed. The CHO/pKREX10-36 cells were collected by centrifugation, and suspended in Hanks' balanced salts (ICN Biomedicals) containing 1 mM L-ascorbic acid and 1 mM 3-isobutyl-1-methylxanthine at the concentration of about 2×10^6cells/ml. This suspension (100μl) and a test compound were mixed in the same balanced salt (500 μl) and incubated at 37° C. for 30 minutes, followed by boiling for 5 minutes to terminate the reaction. After centrifugation of the reaction mixture, the amount of cAMP in the supernatant was measured by using cAMP EIA System (Amersham).
# [2] = test system: glucose level in the blood; assay: Blood glucose reducing activity on fasted mouse; assay type: in vivo, ddY male mouse; details: po, 3 h, read-out: Blood glucose reducing activity (ED25)
# Description: Experiment 2 Blood glucose reducing activity on fasted mouse:
# A test compound suspended in 0.5% tragacanth solution was orally administered to a ddY male mouse (weight: 20-30 g) under being fasted, and the blood was collected before and at three hours after the administration of the test compound. The glucose level in the blood was determined by the method of Kunst A., et al. (Hexokinase/G6PDH method) [Bergmeyer, H. U. (eds.), […], vol. VI, 3rd edition, Verlag Chemie GmbH, Weinheim·Deerfield Beach, Florida·Basel, 163-172 (1984)]. The blood glucose reducing activity of the test compound was expressed by ED25 value which is a concentration of the test compound required to reduce the glucose level in blood before the administration of the test compound by 25%. Gliclazide was used as a reference compound which is a commercially available drug for treatment of diabetes mellitus.
# [3] = Acute toxicity experiment using mice; assay type: in vivo; details: oral administration at a dose of 300 mg/kg
# Text: Thus, when taking into consideration the therapeutically effective dose, the compounds of the present invention have no problem in safety to living body.
# [4] = biological target: T2, human β2 -adrenergic receptor (Homo sapiens, UniProt P07550); assay: Human β2-adrenergic receptor-stimulating activity (cAMP accumulation in CHO/pKREX21-8 cells); assay type: cell-based
# T2 construct: expressed in transfected cells; host or cells: CHO-K1, clone CHO/pKREX21-8
# Text: cDNA was synthesized with Poly(A)^+ RNA derived from human brain (Clontech: trade number; CL6516-1) by using SuperScript Systems (Life Technologies).
# After the reaction mixture was digested with restriction endonucleases Sse8387I and HindIII, about 1.4 kbp fragment was isolated by electrophoresis. This fragment was ligated with expression vector pKCN1 digested with restriction endonucleases Sse8387I and HindIII, and was introduced into E. coli HB101 in a conventional manner. Plasmid DNA was prepared from the selected transformant, and the nucleotide sequence of the about 1.4 kbp fragment obtained by digestion of this plasmid DNA with restriction endonucleases Sse8387I and HindIII was determined. […] This plasmid was named as pKREX21 for highly expressing human β2 -adrenergic receptor, and was introduced into CHO-K1 in the same manner as the method of establishment of the cell line highly expressing human β3 -adrenergic receptor.
# as §1, §2
# Similarly, the amount of cAMP was measured by using CHO/pKREX21-8 for highly expressing human β2 -adrenergic receptor instead of the CHO/pKREX10-36 for highly expressing human β3 -adrenergic receptor.
# T2 sequence (P07550 whole entry): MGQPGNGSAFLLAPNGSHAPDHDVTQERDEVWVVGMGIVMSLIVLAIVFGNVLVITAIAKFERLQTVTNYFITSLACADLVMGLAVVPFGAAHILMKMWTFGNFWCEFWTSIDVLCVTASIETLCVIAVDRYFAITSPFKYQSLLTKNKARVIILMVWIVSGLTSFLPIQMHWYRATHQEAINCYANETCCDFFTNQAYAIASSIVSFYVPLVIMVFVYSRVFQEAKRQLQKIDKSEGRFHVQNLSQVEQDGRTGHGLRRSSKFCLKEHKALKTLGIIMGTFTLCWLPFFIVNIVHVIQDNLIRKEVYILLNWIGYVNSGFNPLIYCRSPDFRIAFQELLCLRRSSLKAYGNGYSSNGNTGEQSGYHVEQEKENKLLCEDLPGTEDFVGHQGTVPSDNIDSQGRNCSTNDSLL
# T1 sequence (P13945 whole entry): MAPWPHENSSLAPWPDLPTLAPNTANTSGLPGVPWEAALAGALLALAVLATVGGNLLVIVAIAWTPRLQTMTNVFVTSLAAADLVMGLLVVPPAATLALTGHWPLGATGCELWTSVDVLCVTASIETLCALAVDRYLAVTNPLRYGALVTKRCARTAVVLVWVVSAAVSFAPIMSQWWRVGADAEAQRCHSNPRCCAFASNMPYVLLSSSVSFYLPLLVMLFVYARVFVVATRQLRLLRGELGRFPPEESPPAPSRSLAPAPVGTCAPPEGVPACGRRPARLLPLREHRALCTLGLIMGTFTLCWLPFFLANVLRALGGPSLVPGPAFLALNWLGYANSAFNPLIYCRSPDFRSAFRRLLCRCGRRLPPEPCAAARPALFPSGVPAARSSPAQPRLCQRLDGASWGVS
structure (smiles),measurement,setting,value
"COc1cccc2c(CC(C)NC[C@H](O)c3cccc(Cl)c3)c[nH]c12 (stereo partly drawn) [Example 1-A, 2-[3-(7-methoxyindol-3-yl)-2-propylamino]-(1R)-1-(3-chlorophenyl)ethanol]",EC50,"[1]; 50% of cAMP accumulation, CHO/pKREX10-36, 37° C., 30 minutes, read-out: EC50 value β3 -receptor",0.67 nM
same,Emax,[1]; read-out: I.A. value β3 -receptor,114%
same,ED25,[2],3 µg/kg
same,acute toxicity,[3],no toxicity at all
same,EC50,[4],13 nM
same,Emax,[4]; read-out: I.A. value β2 -receptor,36%
